# Patent US7507547B2, “Screening assays for antioxidants and antiproliferative compounds” (University of Massachusetts, priority 2004, dated 2009)
# Values joined by “and” are separate entries in the source; they are usually repeats but may differ in a detail not shown here. Equal entries are not always repeated.
# Columns and labels:
# [1] = tested on: ATP-induced IP formation in PC3 cells; conditions: maximal dose (10 μM)
# [2] = tested on: NT-induced inositol phosphate (IP) formation in PC3 cells; assay: NT-induced IP formation in PC3 cells; assay type: cell-based
# NTR1 [3] = molecular target: T1, NTR1 (Homo sapiens, UniProt P30989); assay: Cell-surface binding and internalization of ^125I-NT in PC3 cells; assay type: cell-based; conditions: 50 μM agent, 37° C., prebound at 4° C.
# T1 construct: endogenous in cells; host or cells: PC3 cells (ATCC)
# NTR1 [4] = molecular target: T1, NTR1; assay: ^125I-NT binding to PC3 cells
# [5] = tested on: IP formation in PC3 cells; assay: IP formation in PC3 cells in response to ionomycin; assay type: cell-based
# Description: Ca^2+-ionophore (ionomycin) stimulated IP formation, reproducing ≅63% of the NT response. […] When added 2 minutes after a maximal dose of NT (30 nM), low doses of ionomycin (2-10 μM) enhanced the NT response. […] In contrast, a maximal dose of ionomycin gave less than additive enhancement of the NT response.
# [6] = molecular target: neurotensin-2 receptor (NTR2) (Homo sapiens, UniProt O95665); conditions: read-out: binding affinity; cited from earlier work
# [7] = molecular target: neurotensin-1 receptor (NTR1) (Homo sapiens, UniProt P30989); conditions: read-out: binding affinity; cited from earlier work
# Chain of neurotensin-1 receptor (NTR1) (P30989 whole entry, species assumed): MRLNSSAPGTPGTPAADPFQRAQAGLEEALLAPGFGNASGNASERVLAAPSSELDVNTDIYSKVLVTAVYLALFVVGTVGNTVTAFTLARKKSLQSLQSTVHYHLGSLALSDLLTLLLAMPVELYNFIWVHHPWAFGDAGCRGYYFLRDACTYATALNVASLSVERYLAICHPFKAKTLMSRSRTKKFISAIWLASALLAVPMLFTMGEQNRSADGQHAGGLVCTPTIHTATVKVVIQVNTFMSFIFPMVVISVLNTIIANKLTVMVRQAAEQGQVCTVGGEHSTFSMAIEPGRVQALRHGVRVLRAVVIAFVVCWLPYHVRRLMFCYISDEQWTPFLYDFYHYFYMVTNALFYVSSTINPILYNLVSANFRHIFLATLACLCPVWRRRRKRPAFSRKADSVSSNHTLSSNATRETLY
# T1 sequence (P30989 whole entry): as the sequence (P30989 whole entry, species assumed) above
# Chain of neurotensin-2 receptor (NTR2) (O95665 whole entry, species assumed): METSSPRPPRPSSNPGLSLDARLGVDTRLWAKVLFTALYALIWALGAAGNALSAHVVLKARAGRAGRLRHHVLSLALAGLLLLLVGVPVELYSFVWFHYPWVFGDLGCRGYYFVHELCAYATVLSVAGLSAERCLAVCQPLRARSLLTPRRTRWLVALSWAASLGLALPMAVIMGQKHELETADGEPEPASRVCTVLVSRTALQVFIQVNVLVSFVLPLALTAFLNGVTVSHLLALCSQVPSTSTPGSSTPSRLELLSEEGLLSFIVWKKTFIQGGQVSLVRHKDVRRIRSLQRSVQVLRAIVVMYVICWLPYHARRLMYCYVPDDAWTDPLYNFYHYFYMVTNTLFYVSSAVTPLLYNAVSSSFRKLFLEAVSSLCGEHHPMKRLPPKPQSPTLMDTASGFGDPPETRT
molecule,measurement,setting,value
Nc1ncnc2c1ncn2[C@@H]1O[C@H](COP(=O)(O)OP(=O)(O)OP(=O)(O)O)[C@@H](O)[C@H]1O [ATP],Stimulation of IP formation by ATP,[1],~17 fold and > 15 fold
O=C(CCc1ccc(O)cc1)c1c(O)cc(O)cc1O [Phloretin],IC50,"[2]; Homo sapiens, PC-3, [agent] at which IP formation was decreased by 50%",23 µM
same,IP Formation Efficacy (% decrease),[2]; maximal % decrease in NT-induced IP formation,70 % decrease
same,Internalization rate of prebound cell-surface ^125I-NT,NTR1 [3],8.1±0.7 %/minute
same,EC50,NTR1 [4],27 µM
C[C@H](CCC(=O)O)C[C@H](C)C[C@H](C)C(=O)/C=C(\O)[C@H](C)C[C@H](C)C/C=C/[C@@H](C)[C@@H](O)[C@@H](C)[C@@H](O)C[C@@H]1CC[C@@](C)([C@H]2CC[C@@](C)([C@@H](C)O)O2)O1 [ionomycin],IP formation as share of the NT response,[5],~63%
"Trp 11 NT(1-13): peptide identical to NT (1-13) except for substitution of tryptophan for tyrosine at amino acid 11 (QLYENKPRRPWIL; Neurotensin; UniProt P30990 151-163, looked up, variant Y11W)",Kd,[6],~0.027 µM
same,Kd,[7],~0.001 µM
